The record followed here is patent publication US20230002373A1, “COMPOUNDS AND COMPOSITIONS FOR TREATING CONDITIONS ASSOCIATED WITH STING ACTIVITY” (IFM Due, Inc., priority 2019, published 2023).

The term EC50 denotes the concentration at which the effect is half-maximal.

The target in the test is T1, hSTING (Homo sapiens, UniProt Q86WV6, G230A/H232R/R293Q/R71H).
T1 construct: host or cells: THP1-Dual KO-IFNAR2 cells
Description: STING reporter assay (luciferase) in THP1-Dual KO-IFNAR2 cells stimulated with 2′3′cGAMP. Format: cell-based. The conditions noted are these: 15 μM 2′3′cGAMP, 24 h. Here is the method:
STING pathway activation by the compounds described herein was measured using THP1-Dual™ cells (KO-IFNAR2).
THP1-Dual™ KO-IFNAR2 Cells (obtained from invivogen) were maintained in RPMI, 10% FCS, 5 ml P/S, 2 mM L-glut, 10 mM Hepes, and 1 mM sodium pyruvate. Compounds were spotted in empty 384 well tissue culture plates (Greiner 781182) by Echo for a final concentration of 0.0017-100 μM. Cells were plated into the TC plates […], 2×10E6 cells/mL. For activation with STING ligand, 2′3′cGAMP (MW 718.38, obtained from Invivogen), was prepared in Optimem media.
The following solutions were prepared for each 1×384 plate: • Solution A: 2 mL Optimem with one of the following stimuli: • 60 μL of 10 mM 2′3′cGAMP->150 μM stock • Solution B: 2 mL Optimem with 60 μL Lipofectamine 2000->Incubate 5 min at RT
2 mL of solution A and 2 ml Solution B was mixed and incubated for 20 min at room temperature (RT). 20 uL of transfection solution (A+B) was added on top of the plated cells, with a final 2′3′cGAMP concentration of 15 μM. The plates were then centrifuged immediately at 340 g for 1 minute, after which they were incubated at 37° C., 5% CO2, >98% humidity for 24 h. Luciferase reporter activity was then measured. EC50 values were calculated by using standard methods known in the art.
Luciferase reporter assay: 10 μL of supernatant from the assay was transferred to white 384-plate with flat bottom and squared wells. One pouch of QUANTI-Luc™ Plus was dissolved in 25 mL of water. 100 μL of QLC Stabilizer per 25 mL of QUANTI-Luc™ Plus solution was added. 50 μL of QUANTI-Luc™ Plus/QLC solution per well was then added. Luminescence was measured on a Platereader (e.g., Spectramax I3X (Molecular Devices GF3637001)).
Luciferase reporter activity was then measured. EC50 values were calculated by using standard methods known in the art.
A general note: In a reporter assay the amount or activity of a reporter protein is the signal.

T1 sequence (Q86WV6 whole entry R71H/G230A/H232R/R293Q): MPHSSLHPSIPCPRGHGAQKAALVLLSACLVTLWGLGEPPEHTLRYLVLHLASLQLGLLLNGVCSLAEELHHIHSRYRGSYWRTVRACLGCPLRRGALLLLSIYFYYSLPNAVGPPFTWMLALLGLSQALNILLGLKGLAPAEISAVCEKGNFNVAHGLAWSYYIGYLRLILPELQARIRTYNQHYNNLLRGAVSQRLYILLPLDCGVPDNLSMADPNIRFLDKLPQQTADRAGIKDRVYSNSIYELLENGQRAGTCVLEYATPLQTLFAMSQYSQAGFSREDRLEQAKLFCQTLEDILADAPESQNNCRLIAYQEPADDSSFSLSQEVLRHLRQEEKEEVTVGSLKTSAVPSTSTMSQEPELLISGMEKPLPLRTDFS

In turn, `O=C(Nc1c[nH]c2ncc(F)cc12)C(=O)N[C@H]1CCCC2(CCCCC2)C1` (single isomer, unassigned) [Compound 196, N-[5-fluoro-1H-pyrrolo[2,3-b]pyridin-3-yl]-N′-[(2S or 2R)-spiro[5.5]undecan-2-yl]ethanediamide] returned a concentration for a half-maximal effect (EC50) (class symbols) of 1 to 5 µM.
`O=C(Nc1c[nH]c2ncc(F)cc12)C(=O)N[C@@H]1CCCC2(CCCCC2)C1` (single isomer, unassigned) [Compound 197, N-[5-fluoro-1H-pyrrolo[2,3-b]pyridin-3-yl]-N′-[(2R or 2S)-spiro[5.5]undecan-2-yl]ethanediamide]: the EC50 (class symbols) is 5 to 100 µM.
On the same count and under the same terms, under `O=C(Nc1c[nH]c2ncc(F)cc12)C(=O)N[C@H]1CCC2(CCCC2)C1` (single isomer, unassigned) [Compound 199] stands 5 to 100 µM.
Same read-out and setting: under `O=C(Nc1c[nH]c2ncc(F)cc12)C(=O)N[C@@H]1CCC2(CCCC2)C1` (single isomer, unassigned) [Compound 200] stands 5 to 100 µM.
On the same count and under the same terms, to `O=C(Nc1c[nH]c2ncc(F)cc12)C(=O)N[C@H]1CCC2(CCCCC2)C1` (single isomer, unassigned) [Compound 201] belongs 1 to 5 µM.
As for `O=C(Nc1c[nH]c2ncc(F)cc12)C(=O)N[C@@H]1CCC2(CCCCC2)C1` (single isomer, unassigned) [Compound 202], under “class symbols”, the EC50 was in the range of 5 to 100 µM.
Same read-out and setting: to `Cc1cc(NC(=O)C(=O)Nc2c[nH]c3ncc(F)cc23)cc(C(F)(F)F)c1` [Compound 101, N^1-(5-fluoro-1H-pyrrolo[2,3-b]pyridin-3-yl)-N^2-(3-methyl-5-(trifluoromethyl)phenyl)oxalamide] belongs 0.2 to 1 µM; to `O=C(Nc1ccc(C2CCCCC2)nc1)C(=O)Nc1c[nH]c2ncc(F)cc12` [Compound 102, N^1-(6-cyclohexyl-pyridin-3-yl)-N^2-(5-fluoro-1H-pyrrolo[2,3-b]pyridin-3-yl)oxalamide], 1 to 5 µM.
The same measure, in the same setting: to `O=C(Nc1c[nH]c2ncc(F)cc12)C(=O)NC1CCC2(CCCCC2)CC1` [Compound 103, N^1-(5-fluoro-1H-pyrrolo[2,3-b]pyridin-3-yl)-N^2-(spiro[5.5]undecan-3-yl)oxalamide] belongs 0.2 to 1 µM; to `O=C(NCC12CC3CC(CC(C3)C1)C2)C(=O)Nc1c[nH]c2ncc(F)cc12` [Compound 105, N^1-(adamantan-1-ylmethyl)-N^2-(5-fluoro-1H-pyrrolo[2,3-b]pyridin-3-yl)oxalamide], 5 to 100 µM; to `Cc1cc(NC(=O)C(=O)Nc2c[nH]c3cccnc23)cc(C(F)(F)F)c1` [Compound 107, N^1-(3-methyl-5-(trifluoromethyl)phenyl)-N^2-(1H-pyrrolo[3,2-b]pyridin-3-yl)oxalamide], 0.2 to 1 µM.
Consider `O=C(Nc1cnc2c(c1)CCCC2)C(=O)Nc1c[nH]c2cccnc12` [Compound 108, N^1-(1H-pyrrolo[3,2-b]pyridin-3-yl)-N^2-(5,6,7,8-tetrahydro-quinolin-3-yl)oxalamide], for which the EC50 (numeric bounds) was above 100 µM.
On to `Cc1ccc(CNC(=O)C(=O)Nc2c[nH]c3cccnc23)cc1C(F)(F)F` [Compound 109, N^1-(4-methyl-3-(trifluoromethyl)benzyl)-N^2-(1H-pyrrolo[3,2-b]pyridin-3-yl)oxalamide], for which the EC50 (class symbols) is 0.2 to 1 µM.
On to `O=C(NCc1ccc(-c2ccccc2C(F)(F)F)cc1)C(=O)Nc1c[nH]c2cccnc12` [Compound 110, N^1-(1H-pyrrolo[3,2-b]pyridin-3-yl)-N^2-((2′-(trifluoromethyl)-[1,1′-biphenyl]-4-yl)methyl)oxalamide], for which the EC50 (class symbols) lay within 1 to 5 µM.
On the same count and under the same terms, under `O=C(NCC1CC2C=CC1C2)C(=O)Nc1c[nH]c2cccnc12` (stereo not shown) [Compound 111, N^1-(bicyclo[2.2.1]hept-5-en-2-ylmethyl)-N^2-(1H-pyrrolo[3,2-b]pyridin-3-yl)oxalamide] stands 5 to 100 µM; under `O=C(Nc1ccc(C(F)(F)F)cn1)C(=O)Nc1c[nH]c2ccncc12` [Compound 113, N^1-(1H-pyrrolo[3,2-c]pyridin-3-yl)-N^2-(5-(trifluoromethyl)pyridin-2-yl)oxalamide], 1 to 5 µM; under `O=C(Nc1cccc(C(F)(F)F)c1)C(=O)Nc1c[nH]c2ccncc12` [Compound 114, N^1-(1H-pyrrolo[3,2-c]pyridin-3-yl)-N^2-(3-(trifluoromethyl)phenyl)oxalamide], 1 to 5 µM.
Still for that read-out and setting: to `Cc1cc(NC(=O)C(=O)Nc2c[nH]c3ccncc23)cc(C(F)(F)F)c1` [Compound 115, N^1-(3-methyl-5-(trifluoromethyl)phenyl)-N^2-(1H-pyrrolo[3,2-c]pyridin-3-yl)oxalamide] belongs 0.2 to 1 µM; to `Cc1ccc(CNC(=O)C(=O)Nc2c[nH]c3ccncc23)cc1C(F)(F)F` [Compound 119, N^1-(4-methyl-3-(trifluoromethyl)benzyl)-N^2-(1H-pyrrolo[3,2-c]pyridin-3-yl)oxalamide], 0.2 to 1 µM.
Still for that read-out and setting: to `O=C(NCc1ccc(-c2ccccc2C(F)(F)F)cc1)C(=O)Nc1c[nH]c2ccncc12` [Compound 120, N^1-(1H-pyrrolo[3,2-c]pyridin-3-yl)-N^2-((2′-(trifluoro-methyl)-[1,1′-biphenyl]-4-yl)methyl)oxalamide] belongs 0.2 to 1 µM; to `O=C(Nc1c[nH]c2ccncc12)C(=O)NC1CCC2(CCCCC2)CC1` [Compound 121, N^1-(1H-pyrrolo[3,2-c]pyridin-3-yl)-N^2-(spiro[5.5]undecan-3-yl)oxalamide], 1 to 5 µM; to `O=C(NCCC1CCC(F)(F)CC1)C(=O)Nc1c[nH]c2ccncc12` [Compound 122, N^1-(2-(4,4-difluorocyclo-hexyl)ethyl)-N^2-(1H-pyrrolo[3,2-c]pyridin-3-yl)oxalamide], 5 to 100 µM.
`O=C(NCC12CC3CC(CC(C3)C1)C2)C(=O)Nc1c[nH]c2ccncc12` [Compound 124, N^1-(adamantan-1-ylmethyl)-N^2-(1H-pyrrolo[3,2-c]pyridin-3-yl)oxalamide] had an EC50 (class symbols) of 1 to 5 µM.
The same measure, in the same setting: to `O=C(Nc1ccc(C(F)(F)F)cc1)C(=O)Nc1c[nH]c2ncc(F)cc12` [Compound 125] belongs 1 to 5 µM; to `Cc1ccc(CNC(=O)C(=O)Nc2c[nH]c3ccc(Br)nc23)cc1C(F)(F)F` [Compound 128], 0.2 to 1 µM.
Same read-out and setting: under `O=C(NCC1(c2cccc(Cl)c2)CC1)C(=O)Nc1c[nH]c2ccncc12` [Compound 129] stands 5 to 100 µM.
Same read-out and setting: to `Cc1ccc(CNC(=O)C(=O)Nc2c[nH]c3ccc(-c4cnn(C)c4)nc23)cc1C(F)(F)F` [Compound 130] belongs 1 to 5 µM; to `O=C(NCc1ccc(C(F)(F)F)c(Cl)c1)C(=O)Nc1c[nH]c2ncc(F)c(F)c12` [Compound 131], 5 to 100 µM.
With `O=C(NCC1CCc2ccccc2O1)C(=O)Nc1c[nH]c2cccnc12` (stereo not shown) [Compound 132, N1-(chroman-2-ylmethyl)-N2-(1H-pyrrolo[3,2-b]pyridin-3-yl)oxalamide], the EC50 (numeric bounds) was above 30 µM.
On the same count and under the same terms, under `O=C(NCCOc1ccc(C(F)(F)F)cc1)C(=O)Nc1c[nH]c2cccnc12` [Compound 133, N1-(1H-pyrrolo[3,2-b]pyridin-3-yl)-N2-(2-(4-(trifluoromethyl)phenoxy)ethyl)oxalamide] stands above 30 µM.
The same measure, in the same setting: to `O=C(Nc1c[nH]c2cccnc12)C(=O)NC(c1ccc(F)cc1)C1CC1` (stereo not shown) [Compound 135, N1-(cyclopropyl(4-fluorophenyl)methyl)-N2-(1H-pyrrolo[3,2-b]pyridin-3-yl)oxalamide] belongs above 30 µM.
